Literature values in US20100284933A1, “Biomarkers of Multiple Sclerosis” (Biogen Idec MA Inc., priority 2006, published 2010).

Key:
[1] = system: CBRs; conditions: background statement
[2] = target: PBRs (Homo sapiens, UniProt P30536); conditions: background statement
PBRs, sequence (P30536 whole entry): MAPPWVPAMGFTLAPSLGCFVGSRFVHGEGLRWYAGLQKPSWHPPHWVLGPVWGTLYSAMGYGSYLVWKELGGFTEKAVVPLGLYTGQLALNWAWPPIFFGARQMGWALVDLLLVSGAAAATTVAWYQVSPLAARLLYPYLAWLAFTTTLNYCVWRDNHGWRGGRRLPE

SMILES	affinity for CBRs [1]	affinity for PBRs [2]
CN1C(=O)CN=C(c2ccc(Cl)cc2)c2cc(Cl)ccc21 [Ro 5-4864, 4′-chlorodiazepam]	negligible affinity	high affinity
CCC(C)N(C)C(=O)c1cc2ccccc2c(-c2ccccc2Cl)n1 (stereo not shown) [PK 11195]	negligible affinity	high affinity
